# Experimental data published in PubChem BioAssay (NCI).
#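 Grown in 96-well plates, cells were treated for 48 hours with each compound at five concentrations. Insufficient inhibition: endpoint recorded as highest concentration tested. GI50: concentration for 50% inhibition of growth. The concentration for full growth arrest is given as TGI.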
# How the values were obtained:
# Experiment in all cases: DTP human tumour cell line panel, 48 h
# BT-549 breast = tested on: BT-549 breast
# TK-10 renal = tested on: TK-10 renal
# MDA-MB-231 breast = tested on: MDA-MB-231 breast
# CAKI-1 renal = tested on: CAKI-1 renal
# HS 578T breast = tested on: HS 578T breast
# HCC-2998 colon = tested on: HCC-2998 colon
# A498 renal = tested on: A498 renal
# OVCAR-4 ovarian = tested on: OVCAR-4 ovarian
# HL-60(TB) leukemia = tested on: HL-60(TB) leukemia
# MOLT-4 leukemia = tested on: MOLT-4 leukemia
# LOX IMVI melanoma = tested on: LOX IMVI melanoma
# NCI/ADR-RES ovarian = tested on: NCI/ADR-RES ovarian
# EKVX NSCLC = tested on: EKVX NSCLC
# SK-MEL-2 melanoma = tested on: SK-MEL-2 melanoma
# HOP-62 NSCLC = tested on: HOP-62 NSCLC
# SK-MEL-28 melanoma = tested on: SK-MEL-28 melanoma
# M14 melanoma = tested on: M14 melanoma
# RPMI-8226 leukemia = tested on: RPMI-8226 leukemia
# SK-MEL-5 melanoma = tested on: SK-MEL-5 melanoma
# OVCAR-5 ovarian = tested on: OVCAR-5 ovarian
# SF-539 CNS = tested on: SF-539 CNS
# SF-295 CNS = tested on: SF-295 CNS
# SK-OV-3 ovarian = tested on: SK-OV-3 ovarian
# HCT-15 colon = tested on: HCT-15 colon
# HOP-92 NSCLC = tested on: HOP-92 NSCLC
# RXF 393 renal = tested on: RXF 393 renal
# SNB-75 CNS = tested on: SNB-75 CNS
# T-47D breast = tested on: T-47D breast
# IGROV1 ovarian = tested on: IGROV1 ovarian
# SN12C renal = tested on: SN12C renal
# MCF7 breast = tested on: MCF7 breast
# SR leukemia = tested on: SR leukemia
# 786-0 renal = tested on: 786-0 renal
# HCT-116 colon = tested on: HCT-116 colon
# DU-145 prostate = tested on: DU-145 prostate
# KM12 colon = tested on: KM12 colon
# ACHN renal = tested on: ACHN renal
# OVCAR-3 ovarian = tested on: OVCAR-3 ovarian
# A549 NSCLC = tested on: A549 NSCLC
# MALME-3M melanoma = tested on: MALME-3M melanoma
# UACC-62 melanoma = tested on: UACC-62 melanoma
# NCI-H522 lung = tested on: NCI-H522 lung
# COLO 205 colon = tested on: COLO 205 colon
# PC-3 prostate = tested on: PC-3 prostate
# MDA-MB-435 = tested on: MDA-MB-435
# NCI-H226 lung = tested on: NCI-H226 lung
# SNB-19 CNS = tested on: SNB-19 CNS
# SF-268 CNS = tested on: SF-268 CNS
# NCI-H460 lung = tested on: NCI-H460 lung
# OVCAR-8 ovarian = tested on: OVCAR-8 ovarian
# CCRF-CEM leukemia = tested on: CCRF-CEM leukemia
# U251 CNS = tested on: U251 CNS
# HT29 colon = tested on: HT29 colon
# K-562 leukemia = tested on: K-562 leukemia
# UO-31 renal = tested on: UO-31 renal
# SW-620 colon = tested on: SW-620 colon
# UACC-257 melanoma = tested on: UACC-257 melanoma
smiles,measurement,setting,value
O=C(CSc1nc2sc3c(c2c(=O)n1-c1ccc(Cl)cc1)CCCC3)NNC(=O)Nc1ccc(Cl)c(C(F)(F)F)c1,GI50,BT-549 breast,3.5 µM
same,TGI,BT-549 breast,14.4 µM
same,GI50,TK-10 renal,4.3 µM
same,TGI,TK-10 renal,23.6 µM
same,GI50,MDA-MB-231 breast,4.45 µM
same,TGI,MDA-MB-231 breast,20.5 µM
same,GI50,CAKI-1 renal,1.99 µM
same,TGI,CAKI-1 renal,6.17 µM
same,GI50,HS 578T breast,6.93 µM
same,TGI,HS 578T breast,73.1 µM
same,GI50,HCC-2998 colon,3.04 µM
same,TGI,HCC-2998 colon,9.42 µM
same,GI50,A498 renal,2.58 µM
same,TGI,A498 renal,8.61 µM
same,GI50,OVCAR-4 ovarian,1.92 µM
same,TGI,OVCAR-4 ovarian,4.31 µM
same,GI50,HL-60(TB) leukemia,3.18 µM
same,TGI,HL-60(TB) leukemia,17.7 µM
same,GI50,MOLT-4 leukemia,2.74 µM
same,TGI,MOLT-4 leukemia,14.1 µM
same,GI50,LOX IMVI melanoma,1.76 µM
same,TGI,LOX IMVI melanoma,3.49 µM
same,GI50,NCI/ADR-RES ovarian,6.57 µM
same,TGI,NCI/ADR-RES ovarian,97.3 µM
same,GI50,EKVX NSCLC,2.68 µM
same,TGI,EKVX NSCLC,8.85 µM
same,GI50,SK-MEL-2 melanoma,2.46 µM
same,TGI,SK-MEL-2 melanoma,7.24 µM
same,GI50,HOP-62 NSCLC,4.3 µM
same,TGI,HOP-62 NSCLC,19.1 µM
same,GI50,SK-MEL-28 melanoma,4.48 µM
same,TGI,SK-MEL-28 melanoma,17.3 µM
same,GI50,M14 melanoma,3.42 µM
same,TGI,M14 melanoma,14.1 µM
same,GI50,RPMI-8226 leukemia,2.99 µM
same,TGI,RPMI-8226 leukemia,17.9 µM
same,GI50,SK-MEL-5 melanoma,4.06 µM
same,TGI,SK-MEL-5 melanoma,14.7 µM
same,GI50,OVCAR-5 ovarian,4.4 µM
same,TGI,OVCAR-5 ovarian,19.7 µM
same,GI50,SF-539 CNS,6.53 µM
same,TGI,SF-539 CNS,21.2 µM
same,GI50,SF-295 CNS,3.11 µM
same,TGI,SF-295 CNS,8.87 µM
same,GI50,SK-OV-3 ovarian,4.66 µM
same,TGI,SK-OV-3 ovarian,20.4 µM
same,GI50,HCT-15 colon,3.59 µM
same,TGI,HCT-15 colon,18.6 µM
same,GI50,HOP-92 NSCLC,1.44 µM
same,TGI,HOP-92 NSCLC,3.97 µM
same,GI50,RXF 393 renal,2.58 µM
same,TGI,RXF 393 renal,9.32 µM
same,GI50,SNB-75 CNS,2.01 µM
same,TGI,SNB-75 CNS,7.88 µM
same,GI50,T-47D breast,1.83 µM
same,TGI,T-47D breast,4.2 µM
same,GI50,IGROV1 ovarian,4.71 µM
same,TGI,IGROV1 ovarian,91.7 µM
same,GI50,SN12C renal,3.3 µM
same,TGI,SN12C renal,12.9 µM
same,GI50,MCF7 breast,2.77 µM
same,TGI,MCF7 breast,17.6 µM
same,GI50,SR leukemia,3.3 µM
same,TGI,SR leukemia,46.1 µM
same,GI50,786-0 renal,4.23 µM
same,TGI,786-0 renal,16 µM
same,GI50,HCT-116 colon,1.87 µM
same,TGI,HCT-116 colon,3.99 µM
same,GI50,DU-145 prostate,3.86 µM
same,TGI,DU-145 prostate,> 100 µM
same,GI50,KM12 colon,3.75 µM
same,TGI,KM12 colon,> 100 µM
same,GI50,ACHN renal,3.56 µM
same,TGI,ACHN renal,16.9 µM
same,GI50,OVCAR-3 ovarian,2.95 µM
same,TGI,OVCAR-3 ovarian,10.6 µM
same,GI50,A549 NSCLC,3.3 µM
same,TGI,A549 NSCLC,15.7 µM
same,GI50,MALME-3M melanoma,2.45 µM
same,TGI,MALME-3M melanoma,6.82 µM
same,GI50,UACC-62 melanoma,2.5 µM
same,TGI,UACC-62 melanoma,10 µM
same,GI50,NCI-H522 lung,1.96 µM
same,TGI,NCI-H522 lung,6.05 µM
same,GI50,COLO 205 colon,2.05 µM
same,TGI,COLO 205 colon,4.7 µM
same,GI50,PC-3 prostate,2.05 µM
same,TGI,PC-3 prostate,6.62 µM
same,GI50,MDA-MB-435,3.67 µM
same,TGI,MDA-MB-435,14.6 µM
same,GI50,NCI-H226 lung,2.89 µM
same,TGI,NCI-H226 lung,11.3 µM
same,GI50,SNB-19 CNS,4.08 µM
same,TGI,SNB-19 CNS,> 100 µM
same,GI50,SF-268 CNS,6.21 µM
same,TGI,SF-268 CNS,> 100 µM
same,GI50,NCI-H460 lung,3.16 µM
same,TGI,NCI-H460 lung,10.9 µM
same,GI50,OVCAR-8 ovarian,3.12 µM
same,TGI,OVCAR-8 ovarian,11.9 µM
same,GI50,CCRF-CEM leukemia,3.65 µM
same,TGI,CCRF-CEM leukemia,> 100 µM
same,GI50,U251 CNS,2.93 µM
same,TGI,U251 CNS,10.9 µM
same,GI50,HT29 colon,3.05 µM
same,TGI,HT29 colon,9.54 µM
same,GI50,K-562 leukemia,2.51 µM
same,TGI,K-562 leukemia,> 100 µM
same,GI50,UO-31 renal,2.85 µM
same,TGI,UO-31 renal,29.5 µM
same,GI50,SW-620 colon,3.16 µM
same,TGI,SW-620 colon,13.2 µM
same,GI50,UACC-257 melanoma,2.94 µM
same,TGI,UACC-257 melanoma,12.6 µM
